According to patent publication US10294202B2, “Pyrrolidinones as herbicides” (FMC Corporation, priority 2013, dated 2019):

Assays:
crabgrass, Brazil = test: Test E preemergence herbicide test; type: in vivo, Digitaria horizontalis; design: key: 0 = no effect, 100 = complete control
Description: (§1) Seeds of plant species selected from corn (Zea mays), soybean (Glycine max), velvetleaf (Abutilon theophrasti), lambsquarters (Chenopodium album), wild poinsettia (Euphorbia heterophylla), pigweed, palmer (palmer pigweed, Amaranthus palmeri), waterhemp (common waterhemp, Amaranthus rudis), surinam grass (Brachiaria decumbens), crabgrass, large (large crabgrass, Digitaria sanguinalis), crabgrass, Brazil (Brazilian crabgrass, Digitaria horizontalis), panicum, fall (fall panicum, Panicum dichotomiflorum), foxtail, giant (giant foxtail, Setaria faberii), foxtail, green (green foxtail, Setaria viridis), goosegrass (Eleusine indica), johnsongrass (Sorghum halepense), ragweed (common ragweed, Ambrosia elatior), barnyardgrass (Echinochloa crus-galli), sandbur (southern sandbur, Cenchrus echinatus), arrowleaf […] rhombifolia), ryegrass, Italian (Italian ryegrass, Lolium multiflorum), dayflower, VA (Virginia dayflower, Commelina virginica), field bindweed (Convolvulus arvensis), morningglory (Ipomoea coccinea), nightshade (eastern black nightshade, Solanum ptycanthum), kochia (Kochia scoparia), nutsedge, yellow (yellow nutsedge, Cyperus esculentus), cocklebur (common cocklebur, Xanthium strumarium), smartweed (ladysthumb smartweed, Polygonum Persicaria) and beggarticks (hairy beggarticks, Bidens pilosa), were planted into a silt loam soil and treated preemergence with test chemicals formulated in a non-phytotoxic solvent mixture which included a surfactant. Treated plants and controls were maintained in a greenhouse for 21 days, after which time all species were compared to controls and visually evaluated. Plant response ratings, summarized in Table E, are based on a scale of 0 to 100 where 0 is no effect and 100 is complete control. A dash (-) response means no test result.

sandbur = test: Test E preemergence herbicide test; type: in vivo, Cenchrus echinatus; design: key: 0 = no effect, 100 = complete control
Description: as §1

speedwell = test: Test D pre-/postemergence herbicide test; type: in vivo, Veronica persica; details: for Plant response rating: Postemergence, Speedwell, scale 0 to 100; for Plant response rating, Speedwell: Preemergence, scale 0 to 100 (0 no effect, 100 complete control)
Summary of the method: (§2)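 Visual ratings from 0 (no effect) to 100 (complete control) were made against untreated controls 7 to 21 days after treatment. Application was both preemergence, on silt loam soil, and postemergence, to 1- to 4-leaf plants 2-18 cm tall; compounds were formulated in a non-phytotoxic surfactant-containing solvent.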

barley, spring = test: Test D pre-/postemergence herbicide test; type: in vivo, Hordeum vulgare; details: for Plant response rating: Barley, Spring, scale 0 to 100; for Plant response rating, Barley, Spring: scale 0 to 100 (0 no effect, 100 complete control)
Summary of the method: as §2

barley, winter = test: Test D pre-/postemergence herbicide test; type: in vivo, Hordeum vulgare; details: for Plant response rating: Barley, Winter, scale 0 to 100; for Plant response rating, Barley, Winter: scale 0 to 100 (0 no effect, 100 complete control)
Summary of the method: as §2

rice, transplanted = test: Test F flood (paddy) test; type: in vivo, Oryza sativa cv. Japonica—M202; details: 21 d, scale 0-100
Summary of the method: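 Visual injury ratings (0 no effect to 100 complete control) were taken 21 d after treatment against untreated controls. Compounds went directly into paddy water held 3 cm above soil, applied at the 2.0–2.5-leaf stage in sterilized Tama silt loam under a 30/27 °C, 16-h greenhouse regime.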

Compound | Plant response rating, Crabgrass, Brazil (crabgrass, Brazil; 31 g ai/ha) | Plant response rating, Crabgrass, Brazil (crabgrass, Brazil; 62 g ai/ha) | Plant response rating, Crabgrass, Brazil (crabgrass, Brazil; 125 g ai/ha) | Plant response rating, Crabgrass, Brazil (crabgrass, Brazil; 250 g ai/ha) | Plant response rating, Sandbur (sandbur; 16 g ai/ha) | Plant response rating, Sandbur (sandbur; 31 g ai/ha) | Plant response rating, Sandbur (sandbur; 62 g ai/ha) | Plant response rating, Sandbur (sandbur; 125 g ai/ha) | Plant response rating, Sandbur (sandbur; 250 g ai/ha) | Plant response rating (speedwell; 31 g ai/ha) | Plant response rating (speedwell; 62 g ai/ha) | Plant response rating (speedwell; 125 g ai/ha) | Plant response rating (speedwell; 250 g ai/ha) | Plant response rating (barley, spring; Postemergence, 31 g ai/ha) | Plant response rating (barley, spring; Postemergence, 62 g ai/ha) | Plant response rating (barley, spring; Postemergence, 125 g ai/ha) | Plant response rating (barley, spring; Postemergence, 250 g ai/ha) | Plant response rating (barley, winter; Postemergence, 31 g ai/ha) | Plant response rating (barley, winter; Postemergence, 62 g ai/ha) | Plant response rating (barley, winter; Postemergence, 125 g ai/ha) | further results
O=C1NCC(c2ccc(Cl)c(Cl)c2)C1C(=O)Nc1ccccc1F (racemic) [Compound 14] | 65 | 80 | 95 | 95 | 0 | 0 | 0 | 0 | 30 | – | – | – | – | – | – | – | – | – | – | – | Plant response rating, Crabgrass, Brazil (crabgrass, Brazil; 16 g ai/ha): 0
O=C1NCC(c2ccc(C(F)(F)F)cc2)C1C(=O)Nc1cccc(F)c1F (racemic) [Compound 202] | 80 | 98 | 98 | 98 | – | 35 | 70 | 85 | 80 | 60 | 75 | 85 | 90 | 0 | 0 | 0 | 5 | 0 | 0 | 0 | Plant response rating, Speedwell (speedwell; 62 g ai/ha): 90; Plant response rating, Speedwell (speedwell; 125 g ai/ha): 90; Plant response rating, Speedwell (speedwell; 31 g ai/ha): 90; Plant response rating, Speedwell (speedwell; 250 g ai/ha): 100; Plant response rating, Barley, Spring (barley, spring; Preemergence, 62 g ai/ha): 25; Plant response rating, Barley, Spring (barley, spring; Preemergence, 31 g ai/ha): 0; Plant response rating (barley, spring; Preemergence, 125 g ai/ha): 25; Plant response rating (barley, spring; Preemergence, 250 g ai/ha): 30; Plant response rating (barley, winter; Postemergence, 250 g ai/ha): 0; Plant response rating, Barley, Winter (barley, winter; Preemergence, 62 g ai/ha): 20; Plant response rating, Barley, Winter (barley, winter; Preemergence, 31 g ai/ha): 20; Plant response rating (barley, winter; Preemergence, 125 g ai/ha): 20; Plant response rating (barley, winter; Preemergence, 250 g ai/ha): 25
O=C1NCC(c2ccc(OC(F)F)cc2)C1C(=O)Nc1cccc(F)c1F (racemic) [Compound 350] | 0 | 75 | 95 | 98 | – | 15 | 35 | 65 | 85 | – | – | – | – | – | – | – | – | – | – | – | –
O=C1NCC(c2ccc(F)c(F)c2)C1C(=O)Nc1cccc(F)c1F (stereo not drawn) [Compound 17, N-(2,3-difluorophenyl)-4-(3,4-difluorophenyl)-2-oxo-3-pyrrolidinecarboxamide] | 65 | 95 | 95 | 98 | 0 | 0 | 50 | 65 | 95 | 0 | 0 | 0 | 0 | 0 | 0 | 0 | 0 | 0 | 0 | 0 | Plant response rating (speedwell; 16 g ai/ha): 0; Plant response rating, Crabgrass, Brazil (crabgrass, Brazil; 16 g ai/ha): 40; Plant response rating, Rice, Transplanted (rice, transplanted; 125 g ai/ha): 10; Plant response rating, Rice, Transplanted (rice, transplanted; 250 g ai/ha): 10; Plant response rating, Rice, Transplanted (rice, transplanted; 500 g ai/ha): 10; Plant response rating, Rice, Transplanted (rice, transplanted; 1000 g ai/ha): 10; Plant response rating, Rice, Transplanted (rice, transplanted; 2000 g ai/ha): 10; Plant response rating (barley, spring; Postemergence, 16 g ai/ha): 0; Plant response rating (barley, winter; Postemergence, 16 g ai/ha): 0; Plant response rating (barley, winter; Postemergence, 250 g ai/ha): 0
O=C1NCC(c2ccc(C(F)(F)F)cc2)C1C(=O)Nc1cccc(F)c1F (stereo not drawn) [Compound 80, N-(2,3-difluorophenyl)-2-oxo-4-[4-(trifluoromethyl)phenyl]-3-pyrrolidinecarboxamide] | – | – | 70 | 95 | 20 | 30 | 50 | 65 | 70 | 60 | 70 | 70 | 65 | 0 | 0 | 0 | 0 | 0 | 0 | 0 | Plant response rating, Speedwell (speedwell; 62 g ai/ha): 85; Plant response rating, Speedwell (speedwell; 125 g ai/ha): 85; Plant response rating, Speedwell (speedwell; 31 g ai/ha): 10; Plant response rating, Speedwell (speedwell; 250 g ai/ha): 100; Plant response rating, Barley, Spring (barley, spring; Preemergence, 62 g ai/ha): 10; Plant response rating, Barley, Spring (barley, spring; Preemergence, 31 g ai/ha): 0; Plant response rating (barley, spring; Preemergence, 125 g ai/ha): 15; Plant response rating (barley, spring; Preemergence, 250 g ai/ha): 30; Plant response rating (barley, winter; Postemergence, 250 g ai/ha): 0; Plant response rating, Barley, Winter (barley, winter; Preemergence, 62 g ai/ha): 5; Plant response rating, Barley, Winter (barley, winter; Preemergence, 31 g ai/ha): 0; Plant response rating (barley, winter; Preemergence, 125 g ai/ha): 15; Plant response rating (barley, winter; Preemergence, 250 g ai/ha): 25
